Assay results from patent US8332025B2, “Method and system for detecting electrophysiological changes in pre-cancerous and cancerous tissue and epithelium” (Epi-Sci, LLC, priority 2005, dated 2012).
Like-named read-outs stand apart in the source and are kept apart here.

Tests used:
[1] = test system: distal colon; assay: Transepithelial potential (VT) of colon during treatment; type: in vivo, CF1 mice; details: administered over the same period (four weeks)
[2] = test system: colonocyte cell membrane; details: cited from earlier work
[3] = test system: apical K+ channels of human colonic mucosa; assay: Short circuit current of human colonic epithelium ex-vivo (FIG. 12); details: 30 mM mucosal; normal colon; 0.1 mM amiloride; elevated serosal K+
Experimental: The potassium permeability of the apical membrane of human colonic mucosa (P^Ka) was determined in surgical specimens of controls and grossly normal-appearing mucosa obtained 10-30 cm proximal to colorectal adenocarcinomas. The mucosa was, mounted in Using chambers and the basolateral, membrane resistance and voltage were nullified by elevating the K^+ in the serosal bathing solution. The apical sodium (Na^+) conductance was blocked with 0.1 mM amiloride. This protocol reduces the equivalent circuit model of the epithelium to an apical membrane conductance and electromotive force in parallel with the paracellular pathway as has been verified by microelectrode studies. […] In cancer-bearing colon the reduction in Isc is to −65 μA/cm^2. The serosal bath was remained constant at 125 mM [K].

[4] = test system: breast epithelium; details: 20 μM luminal, cited from earlier work
[5] = test system: benign human breast epithelial cells; assay: Transepithelial potential of monolayers in Ussing chambers (FIG. 8), benign epithelia; type: cell-based; details: increasing doses 0 to 0.8 μM
Experimental: (§1) It should be noted, that the instantaneous response, illustrated in FIG. 8, is greater in malignant epithelia, whereas the chronic or sustained exposure to estradiol results in a lower increase in TEP (transepithelial, electropotential) in malignant cells. Concurrent measurement of surface electropotential and impedance allow the more accurate diagnosis of cancer. […] The cells were grown, as monolayers on Millipore filters and grew to confluence in 7 to 10 days. The epithelia were then mounted in modified Using chambers and the TEP was measured using a voltage clamp. Increasing doses of estradiol between 0 and 0.8 μM were added (x-axis). The transepithelial potential was measured after each addition and the TEP was measured (y-axis). The different dose response is apparent for benign and malignant epithelia. Malignant epithelia have a lower TEP but undergo an instantaneous increase in TEP of approximately 9 mV (becomes more electronegative and reaches a level of <−6 mV) after exposure to only 0.1 μM estradiol and then depolarize to approximately −2 mV with increasing doses of estradiol up to about 0.5 μM. […] 0.3 μM and then remain persistently elevated (higher electro negativity), unlike the malignant epithelia, with increasing doses of estradiol.

[6] = test system: Malignant and transformed cells; assay: Cell membrane potential, potentiometric fluorescent probe (FIG. 7), malignant and transformed cells; type: cell-based, human; details: estradiol present in the culture medium; −31 to −35 mV in its absence
Experimental: (§2) Measurements were made using a potentiometric fluorescent probe, and ratiometric measurements, which are calibrated using valinomycin and [K^+]-gradients. Ψs were measured in the presence (closed circles) and absence (open circles) of estradiol (the active, metabolite of estrogen). Each symbol is the mean measurement. The upper error bar is the standard error of the mean, and the lower error bar is the 95% confidence level for the observations. The addition of estrogen to cultured breast epithelial cells results in an instantaneous increase in Ψ (data not shown) as well as the transepithelial potential see. FIG. 8. Transepithelial potential (VT) of an epithelium is the sum of the apical (luminal) cell membrane potential (VA) and the basolateral (abluminal) cell membrane potential (VBL). Therefore VT=VA+VBL (changes in VA and/or VBL will therefore alter VT or transepithelial potential). […] Malignant and transformed cells have a Ψ of between −31 and −35 mV in the absence of estradiol and approximately 50 mV when estradiol is present in the culture medium.

[7] = test system: malignant human breast epithelial cells; assay: Transepithelial potential of monolayers in Ussing chambers (FIG. 8), malignant epithelia; type: cell-based
Experimental: as §1

[8] = test system: benign breast epithelial cells; assay: Cell membrane potential, potentiometric fluorescent probe (FIG. 7), benign cells; type: cell-based, human; details: estradiol added to the culture media; approximately −50 mV in its absence
Experimental: as §2

SMILES: O=c1[nH]cc(F)c(=O)[nH]1 [5-fluorouracil]
- effect on transepithelial potential (VT) [1]: did not cause a reduction in VT

SMILES: CNNC [DMH, 1,2 dimethylhydrazine]
- VA (apical membrane voltage) ([2]; after 6 weeks of treatment, from −74.9 mV): −61.4 mV
- VA (apical membrane voltage) ([2]; by 20 weeks of treatment): −34 mV

SMILES: CC[N+](CC)(CC)CC [TEA]
- effect on short circuit current (Isc) [3]: abrupt increase in Isc

SMILES: N=C(N)NC(=O)c1nc(Cl)c(N)nc1N [amiloride]
- increase in transepithelial resistance [4]: 17%
- depolarization of the transepithelial potential (change) ([4]; from −5.9±0.5 mV, mean±SEM): +3.1±0.5 mV

SMILES: C[C@]12CC[C@@H]3c4ccc(O)cc4CC[C@H]3[C@@H]1CC[C@@H]2O [estradiol, 17-β-estradiol]
- dose at which the TEP response peaks [5]: ~0.3 µM
- cell membrane potential (Ψ) [6]: approximately 50 mV
- TEP level reached ([7]; 0.1 μM): < −6 mV
- instantaneous increase in TEP ([7]; 0.1 μM): approximately 9 mV
- TEP after depolarization with increasing doses ([7]; up to about 0.5 μM): approximately −2 mV
- cell membrane potential (Ψ) [8]: ~−70 mV
